Experimental data as given in patent US11077100B2, “Tetrahydroquinoline derivatives as P2X7 receptor antagonists” (RaQualia Pharma Inc., priority 2017, dated 2021).

How the values were obtained:
[1] = target: human P2X7 (Homo sapiens (Human), UniProt Q99572); test: Human P2X7 functional assay (Ca2+ influx, Fluo-4, FDSS); assay type: cell-based; conditions: antagonistic activity with respect to the human P2X7 receptor; BzATP final concentration 80 microM
Summary of the method: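 Ca2+ influx was triggered with BzATP (80 μM final) after a 10-min room-temperature compound preincubation and monitored with Fluo-4 (ex 480/em 540 nm) on FDSS. The cells were HEK293 stably carrying FLAG-tagged human P2X7. Duplicate-averaged 7-point dose-responses gave IC50s.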

[2] = target: rat P2X7 (Rattus norvegicus (Rat), UniProt Q64663); test: Rat P2X7 functional assay (Ca2+ influx, Fluo-4, FDSS); assay type: cell-based; conditions: HEK293 cells stably expressing rat P2X7; BzATP final 10 microM; 7-point dose-response; read-out: Antagonistic activities with respect to the rat P2X7 receptor (IC50)
rat P2X7, sequence (Q64663 whole entry): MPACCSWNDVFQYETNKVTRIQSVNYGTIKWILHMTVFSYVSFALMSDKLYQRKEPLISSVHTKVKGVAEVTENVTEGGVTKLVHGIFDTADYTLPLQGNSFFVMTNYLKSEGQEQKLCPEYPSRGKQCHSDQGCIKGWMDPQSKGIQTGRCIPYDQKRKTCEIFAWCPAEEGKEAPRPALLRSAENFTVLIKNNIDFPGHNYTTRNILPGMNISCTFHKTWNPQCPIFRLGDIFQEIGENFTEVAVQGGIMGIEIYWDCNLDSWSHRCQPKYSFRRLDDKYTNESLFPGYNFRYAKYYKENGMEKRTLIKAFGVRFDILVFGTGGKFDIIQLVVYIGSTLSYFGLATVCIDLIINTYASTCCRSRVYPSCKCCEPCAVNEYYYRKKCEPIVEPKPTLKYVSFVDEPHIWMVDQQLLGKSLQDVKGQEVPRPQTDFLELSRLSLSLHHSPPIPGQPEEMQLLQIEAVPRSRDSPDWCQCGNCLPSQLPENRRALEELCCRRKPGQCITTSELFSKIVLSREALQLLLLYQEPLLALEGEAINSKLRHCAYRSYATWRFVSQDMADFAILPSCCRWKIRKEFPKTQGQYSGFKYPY
Summary of the method: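 IC50 derived from 7-point dose-response in duplicate, measuring inhibition of BzATP-evoked (final 10 microM) intracellular Ca2+ increase by Fluo-4 fluorescence on FDSS. Rat P2X7-HEK293 cells were exposed to compound for 10 min in the dark beforehand.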

human P2X7, sequence (Q99572 whole entry): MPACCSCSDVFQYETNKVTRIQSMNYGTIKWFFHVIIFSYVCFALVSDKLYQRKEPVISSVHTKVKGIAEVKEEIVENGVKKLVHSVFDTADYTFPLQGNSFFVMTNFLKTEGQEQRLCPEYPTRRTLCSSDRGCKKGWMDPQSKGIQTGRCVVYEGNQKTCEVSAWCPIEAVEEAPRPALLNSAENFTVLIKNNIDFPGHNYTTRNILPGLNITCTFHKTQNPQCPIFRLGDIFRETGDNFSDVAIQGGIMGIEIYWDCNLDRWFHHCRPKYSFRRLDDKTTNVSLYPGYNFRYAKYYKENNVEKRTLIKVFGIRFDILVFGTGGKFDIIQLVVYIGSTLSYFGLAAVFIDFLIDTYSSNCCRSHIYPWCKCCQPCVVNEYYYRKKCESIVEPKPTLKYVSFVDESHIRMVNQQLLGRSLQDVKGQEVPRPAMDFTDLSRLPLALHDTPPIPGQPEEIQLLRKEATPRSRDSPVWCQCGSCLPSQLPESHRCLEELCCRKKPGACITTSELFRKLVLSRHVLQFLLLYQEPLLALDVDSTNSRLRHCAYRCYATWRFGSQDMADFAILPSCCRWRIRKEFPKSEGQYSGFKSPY

Compound	IC50 [1]	IC50 [2]
O=C(NCc1ccc(F)c(Cl)c1F)[C@]1(F)CC[C@@](O)(CO)c2ncccc21 [Example 323, (5S,8S)-N-(3-chloro-2,4-difluorobenzyl)-5-fluoro-8-hydroxy-8-(hydroxymethyl)-5,6,7,8-tetrahydroquinoline-5-carboxamide]	101 to 300 nM	< 1000 nM
O=C(NCc1ccc(Cl)cc1Cl)C1(F)CC(O)(CO)c2ncccc21 (centres unmarked) [Example 38, N-(2,4-dichlorobenzyl)-5-fluoro-7-hydroxy-7-(hydroxymethyl)-6,7-dihydro-5H-cyclopenta[b]pyridine-5-carboxamide]	101 to 300 nM	< 1000 nM
COCC1(O)CCC(F)(C(=O)NCc2cccc(C(F)(F)F)c2Cl)c2cccnc21 (centres unmarked) [Example 40, N-(2-chloro-3-(tri-fluoromethyl)benzyl)-5-fluoro-8-hydroxy-8-(methoxy-methyl)-5,6,7,8-tetra-hydroquinoline-5-carboxamide]	< 50 nM	< 1000 nM
O=C(NCc1ccc(Br)cc1Cl)[C@]1(F)CC[C@@H](O)c2ncccc21 [Example 118, (5S,8R)-N-(4-bromo-2-chlorobenzyl)-5-fluoro-8-hydroxy-5,6,7,8-tetrahydroquinoline-5-carboxamide]	< 50 nM	< 1000 nM
O=C(NCc1ccc(F)cc1Cl)[C@]1(F)CC[C@H](OCCO)c2ncccc21 [Example 344, (5S,8S)-N-(2-chloro-4-fluorobenzyl)-5-fluoro-8-(2-hydroxyethoxy)-5,6,7,8-tetrahydroquinoline-5-carboxamide]	< 50 nM	< 1000 nM
O=C(NCc1ccc(F)cc1Cl)[C@]1(F)CC[C@@](O)(CNCCO)c2ncccc21 (relative stereo) [Example 56, (5S*,8R*)-N-(2-chloro-4-fluorobenzyl)-5-fluoro-8-hydroxy-8-(((2-hydroxy-ethyl)amino)methyl)-5,6,7,8-tetrahydro-quinoline-5-carboxamide]	< 50 nM	< 1000 nM
O=C(NCc1ccc(F)cc1Cl)[C@]1(F)CC[C@@](O)(CO)c2ncccc21 [Example 306, (5S,8S)-N-(2-chloro-4-fluorobenzyl)-5-fluoro-8-hydroxy-8-(hydroxymethyl)-5,6,7,8-tetrahydroquinoline-5-carboxamide]	< 50 nM	< 1000 nM
O=C(NC1COc2cc(Cl)cc(Cl)c21)[C@]1(F)CC[C@H](O)c2ncccc21 (stereo partly drawn) [Example 229, (5S,8S)-N-(4,6-dichloro-2,3-dihydrobenzofuran-3-yl)-5-fluoro-8-hydroxy-5,6,7,8-tetrahydroquinoline-5-carboxamide]	< 50 nM	< 1000 nM
O=C(NCc1ccc(F)c(F)c1Cl)[C@@H]1CC[C@H](O)c2ncccc21 [Example 82, (5R,8S)-N-(2-chloro-3,4-difluorobenzyl)-8-hy-droxy-5,6,7,8-tetrahydro-quinoline-5-carboxamide]	< 50 nM	< 1000 nM
Cc1cc(Cl)cc(Cl)c1CNC(=O)C1CC(O)c2ncccc21 (centres unmarked) [Example 26, N-(2,4-dichloro-6-methyl-benzyl)-7-hydroxy-6,7-dihydro-5H-cyclopenta[b] pyridine-5-carboxamide]	< 50 nM	< 1000 nM
O=C(NCc1ccc(Cl)cc1C(F)(F)F)[C@]1(F)CC[C@H](O)c2ncccc21 [Example 157, (5S,8S)-N-(4-chloro-2-(trifiuoromethyl)benzyl)-5-fluoro-8-hydroxy-5,8,7,8-tetrahydroquinoline-5-carboxamide]	< 50 nM	< 1000 nM
C[C@]1(O)CC[C@@](F)(C(=O)NCC2(N3CCOCC3)CCCCC2)c2cccnc21 [Example 274, (5S,8S)-5-fluoro-8-hydroxy-8-methyl-N-((1-morpholinocyclohexyl)methyl)-5,6,7,8-tetrahydroquinoline-5-carboxamide]	< 50 nM	< 1000 nM
O=C(NCc1ccc(F)c(Cl)c1Cl)[C@]1(F)CC[C@@](O)(CO)c2ncccc21 [Example 320, (5S,8S)-N-(2,3-dichloro-4-fluorobenzyl)-5-fluoro-8-hydroxy-8-(hydroxymethyl)-5,6,7,8-tetrahydroquinoline-5-carboxamide]	< 50 nM	< 1000 nM
O=C(NCc1ccc(Cl)cc1Cl)[C@]1(F)CC[C@@](O)(CN2CC(O)C2)c2ncccc21 (relative stereo) [Example 51, (5S*,8R*)-N-(2,4-dichlorobenzyl)-5-fluoro-8-hydroxy-8-((3-hydroxyaze-tidin-1-yl)methyl)-5,6,7,8-tetrahydro-quinoline-5-carboxamide]	< 50 nM	< 1000 nM
O=C(N[C@@H]1CCCc2ccccc21)[C@]1(F)CC[C@H](O)c2ncccc21 [Example 189, (5S,8S)-5-fluoro-8-hydroxy-N-((R)-1,2,3,4-tetrahydronaphthalen-1-yl)-5,6,7,8-tetrahydroquinoline 5-carboxamide]	< 50 nM	< 1000 nM
COCC1(O)CCC(F)(C(=O)NCc2c(C)cc(Cl)cc2Cl)c2cccnc21 (centres unmarked) [Example 39, N-(2,4-dichloro-6-methylbenzyl)-5-fluoro-8-hydroxy-8-(methoxymethyl)-5,6,7,8-tetrahydro-quinoline-5-carboxamide]	< 50 nM	< 1000 nM
O=C1CC[C@@](F)(C(=O)NCc2cccc(F)c2Cl)c2cccnc21 [Example 250, (S)-N-(2-chloro-3-fluorobenzyl)-5-fluoro-8-oxo-5,6,7,8-tetrahydro-quinoline-5-carboxamide]	101 to 300 nM	< 1000 nM
Cc1ccc(F)c(CNC(=O)[C@]2(F)CC[C@H](O)c3ncccc32)c1Cl [Example 142, (5S,8S)-N-(2-chloro-6-fluoro-3-methylbenzyl)-5-fluoro-8-hydroxy-5,6,7,8-tetrahydroquinoline-5-carboxamide]	< 50 nM	< 1000 nM
O=C(NCc1ccc(Cl)cc1Cl)[C@H]1CC[C@@H](O)c2ncccc21 [Example 88, (5S,8R)-N-(2,4-dichloro-benzyl)-8-hydroxy-5,6,7,8-tetrahydroquinoline-5-carboxamide]	< 50 nM	< 1000 nM
O=C(NCc1ccc(F)cc1Cl)[C@]1(F)CC[C@H](O)c2ncc(F)cc21 [Example 242, (5S,8S)-N-(2-chloro-4-fluorobenzyl)-3,5-difluoro-8-hydroxy-5,6,7,8-tetrahydroquinoline-5-carboxamide]	< 50 nM	< 1000 nM
COC[C@]1(O)CC[C@@](F)(C(=O)NCc2ccc(Cl)cc2Cl)c2cccnc21 (relative stereo) [Example 41, (5S*,8S*)-N-(2,4-dichlorobenzyl)-5-fluoro-8-hydroxy-8-(methoxymethyl)-5,6,7,8-tetrahydro-quinoline-5-carboxamide]	< 50 nM	< 1000 nM
O=C(NCc1cccc(Cl)c1Cl)C1CCC(O)c2ncccc21 (centres unmarked) [Example 8, N-(2,3-dichlorobenzyl)-8-hydroxy-5,6,7,8-tetra hydroquinoline-5-carboxamide]	< 50 nM	< 1000 nM
O=C(NCc1c(F)ccc(Cl)c1F)[C@]1(F)CC[C@H](O)c2ncccc21 [Example 193, (5S,8S)-N-(3-chloro-2,6-difluorobenzyl)-5-fluoro-8-hydroxy-5,6,7,8-tetrahydroquinoline-5-carboxamide]	< 50 nM	< 1000 nM
O=C(NCc1ccc(F)cc1Cl)[C@@H]1CC[C@@H](O)c2ncccc21 [Example 89, (5R,8R)-N-(2-chloro-4-fluorobenzyl)-8-hydroxy-5,6,7,8-tetrahydroquinoline-5-carboxamide]	101 to 300 nM	< 1000 nM
CS(=O)(=O)C[C@]1(O)CC[C@@](F)(C(=O)NCc2ccc(F)cc2Cl)c2cccnc21 [Example 299, (5S,8S)-N-(2-chloro-4-fluorobenzyl)-5-fluoro-8-hydroxy-8-((methylsulfonyl)methyl)-5,6,7,8-tetrahydroquinoline-5-carboxamide]	101 to 300 nM	< 1000 nM
O=C(NCc1c(F)cc(Cl)cc1Cl)[C@]1(F)CC[C@](O)(CO)c2ncccc21 [Example 311, (5S,8R)-N-(2,4-dichloro-6-fluorobenzyl)-5-fluoro-8-hydroxy-8-(hydroxymethyl)-5,6,7,8-tetrahydroquinoline-5-carboxamide]	50 to 100 nM	< 1000 nM
O=C1CCC(C(=O)NCc2cccc(Cl)c2Cl)c2cccnc21 (centres unmarked) [Example 3, N-(2,3-dichlorobenzyl)-8-oxo-5,6,7,8-tetrahydro-quinoline-5-carboxamide]	301 to 1000 nM	< 1000 nM
Cc1cc(Cl)cc(Cl)c1CNC(=O)[C@H]1CC[C@@H](O)c2ncccc21 [Example 85, (5S,8R)-N-(2,4-dichloro-6-methylbenzyl)-8-hy-droxy-5,6,7,8-tetrahydro-quinoline-5-carboxamide]	< 50 nM	< 1000 nM
